In ChEMBL document CHEMBL4396958, “Anti-inflammatory phenylpropanoid glycosides from the fruits of Forsythia suspensa” (Bioorg Med Chem Lett, 2019) one finds inhibition and IC50 data, which are given here for two compounds.

Assay [1] deals with Macrophage. Briefly: Inhibition of TNFalpha expression in LPS-induced macrophages (unknown origin) at 10 uM incubated for 24 hrs by ELISA relative to control. It is filed as functional.
Assay [2] concerns Macrophage. Briefly: Inhibition of TNFalpha expression in LPS-induced macrophages (unknown origin) incubated for 24 hrs by ELISA. It is filed as functional, cell-based.

Turning to `O=C(/C=C/c1ccc(O)cc1)OC[C@H]1O[C@@H](Oc2ccc(/C=C/C(=O)OC[C@H]3OC(O)[C@H](O)[C@@H](O)[C@@H]3O)cc2O)[C@H](O)[C@@H](O)[C@@H]1O` (some centres undefined), in assay [1], the inhibition at 10 µM is 98.3%. This compound gave an IC50 in assay [2] of 1050 nM.
Regarding `C[C@@H]1C[C@H]2[C@@H]3CCC4=CC(=O)C=C[C@]4(C)[C@@]3(F)[C@@H](O)C[C@]2(C)[C@@]1(O)C(=O)CO` [DEXAMETHASONE], the inhibition at 10 µM in assay [1] was determined as 82.5%. The same compound displayed an IC50 in assay [2] of 134 nM.
